Source: patent publication US20180319753A1, “MICROBIOCIDAL OXADIAZOLE DERIVATIVES” (SYNGENTA PARTICIPATIONS AG, priority 2015, published 2018)

How the values were obtained:
[1] = tested on: Phakopsora pachyrhizi; assay: Phakopsora pachyrhizi / soybean / leaf disc preventative (Asian soybean rust); type: in vivo; conditions: foliar, 200 ppm in the applied formulation, soybean leaf disks, inoculated one day after application, assessed 12 to 14 days after application, read-out: disease control compared to untreated control leaf disks
Experimental: Leaf disks or leaf segments of various plant species are cut from plants grown in a greenhouse. The cut leaf disks or segments are placed in multiwell plates (24-well format) onto water agar. The leaf disks are sprayed with a test solution before (preventative) or after (curative) inoculation. Compounds to be tested are prepared as DMSO solutions (max. 10 mg/ml) which are diluted to the appropriate concentration with 0.025% Tween20 just before spraying. The inoculated leaf disks or segments are incubated under defined conditions (temperature, relative humidity, light, etc.) according to the respective test system. A single evaluation of disease level is carried out 3 to 14 days after inoculation, depending on the pathosystem. Percent disease control relative to the untreated check leaf disks or segments is then calculated.
Soybean leaf disks are placed on water agar in multiwell plates (24-well format) and sprayed with the formulated test compound diluted in water. One day after application leaf discs are inoculated by spraying a spore suspension on the lower leaf surface. After an incubation period in a climate cabinet of 24-36 hours in darkness at 20° C. and 75% rh leaf disc are kept at 20° C. with 12 h light/day and 75% rh. The activity of a compound is assessed as percent disease control compared to untreated when an appropriate level of disease damage appears in untreated check leaf disks (12 to 14 days after application).
The following compounds at 200 ppm in the applied formulation give at least 80% disease control in this test when compared to untreated control leaf disks under the same conditions, which show extensive disease development.

[2] = tested on: Glomerella lagenarium (Colletotrichum lagenarium); assay: Glomerella lagenarium (Colletotrichum lagenarium) liquid culture / cucumber / preventative (anthracnose); type: cell-based; conditions: Colletotrichum orbiculare; 20 ppm in the applied formulation; liquid culture in PDB, 24° C.; 3 to 4 days after application; read-out: disease control compared to untreated control (inhibition of growth measured photometrically)
Experimental: Mycelia fragments or conidia suspensions of a fungus prepared either freshly from liquid cultures of the fungus or from cryogenic storage, are directly mixed into nutrient broth. DMSO solutions of the test compound (max. 10 mg/ml) are diluted with 0.025% Tween20 by a factor of 50 and 10 μl of this solution is pipetted into a microtiter plate (96-well format). The nutrient broth containing the fungal spores/mycelia fragments is then added to give an end concentration of the tested compound. The test plates are incubated in the dark at 24° C. and 96% relative humidity. The inhibition of fungal growth is determined photometrically after 2 to 7 days, depending on the pathosystem, and percent antifungal activity relative to the untreated check is calculated.
Conidia of the fungus from cryogenic storage are directly mixed into nutrient broth (PDB—potato dextrose broth). After placing a (DMSO) solution of test compound into a microtiter plate (96-well format), the nutrient broth containing the fungal spores is added. The test plates are incubated at 24° C. and the inhibition of growth is measured photometrically 3 to 4 days after application.
The following compounds at 20 ppm in the applied formulation give at least 80% disease control in this test when compared to untreated control under the same conditions, which show extensive disease development.

## FC(F)(F)c1nc(-c2ccc(SCc3ccccc3)cc2)no1 [Compound 1.3, 3-(4-benzylsulfanylphenyl)-5-(trifluoromethyl)-1,2,4-oxadiazole]
other
  melting point: 83 to 87 °C

## FC(F)(F)CSc1ccc(-c2noc(C(F)(F)F)n2)cc1 [Compound 1.4, 3-[4-(2,2,2-trifluoroethylsulfanyl)phenyl]-5-(trifluoromethyl)-1,2,4-oxadiazole]
[1]
  pest or weed control at 200 ppm: ≥ 80%

## Fc1cccc(F)c1CSc1ccc(-c2noc(C(F)(F)F)n2)cc1 [Compound 1.6, 3-[4-[(2,6-difluorophenyl)methylsulfanyl]phenyl]-5-(trifluoromethyl)-1,2,4-oxadiazole]
[1]
  pest or weed control at 200 ppm: ≥ 80%

## Fc1ccc(Sc2ccc(-c3noc(C(F)(F)F)n3)cc2)cc1 [Compound 1.9, 3-[4-(4-fluorophenyl)sulfanylphenyl]-5-(trifluoromethyl)-1,2,4-oxadiazole]
[1]
  pest or weed control at 200 ppm: ≥ 80%
other
  melting point: 64 to 67 °C

## Fc1ccc(Sc2ccc(-c3noc(C(F)(F)F)n3)cc2)c(F)c1 [Compound 1.10, 3-[4-(2,4-difluorophenyl)sulfanylphenyl]-5-(trifluoromethyl)-1,2,4-oxadiazole]
[1]
  pest or weed control at 200 ppm: ≥ 80%
[2]
  inhibition at 20 ppm: ≥ 80%
other
  melting point: 72 to 80 °C

## COc1ccccc1Sc1ccc(-c2noc(C(F)(F)F)n2)cc1 [Compound 1.11, 3-[4-(2-methoxyphenyl)sulfanyl-phenyl]-5-(trifluoromethyl)-1,2,4-oxadiazole]
[1]
  pest or weed control at 200 ppm: ≥ 80%

## FC(F)(F)c1nc(-c2ccc(CSc3ccccc3)cc2)no1 [Compound 1.13, 3-[4-(phenylsulfanylmethyl)phenyl]-5-(trifluoromethyl)-1,2,4-oxadiazole]
[1]
  pest or weed control at 200 ppm: ≥ 80%
other
  melting point: 86 to 91 °C

## CC(C)(C)Sc1ccc(-c2noc(C(F)(F)F)n2)cc1 [Compound 1.16, 3-(4-tert-butylsulfanylphenyl)-5-(trifluoromethyl)-1,2,4-oxadiazole]
[2]
  inhibition at 20 ppm: ≥ 80%

## Cc1ccccc1Sc1ccc(-c2noc(C(F)(F)F)n2)cc1 [Compound 1.17, 3-[4-(o-tolylsulfanyl)phenyl]-5-(trifluoromethyl)-1,2,4-oxadiazole]
[1]
  pest or weed control at 200 ppm: ≥ 80%

## FC(F)(F)c1nc(-c2ccc(Sc3ccccc3Cl)cc2)no1 [Compound 1.18, 3-[4-(2-chlorophenyl)sulfanylphenyl]-5-(trifluoromethyl)-1,2,4-oxadiazole]
[1]
  pest or weed control at 200 ppm: ≥ 80%

## Cc1ccccc1Sc1ccc(-c2noc(C(F)(F)F)n2)cn1 [Compound 1.19, 3-[6-(o-tolylsulfanyl)-3-pyridyl]-5-(trifluoromethyl)-1,2,4-oxadiazole]
[2]
  inhibition at 20 ppm: ≥ 80%

## Fc1ccccc1Sc1ccc(-c2noc(C(F)(F)F)n2)cn1 [Compound 1.20, 3-[6-(2-fluorophenyl)sulfanyl-3-pyridyl]-5-(trifluoromethyl)-1,2,4-oxadiazole]
[1]
  pest or weed control at 200 ppm: ≥ 80%
[2]
  inhibition at 20 ppm: ≥ 80%

## FC(F)(F)c1nc(-c2ccc(SCc3ccccc3)nc2)no1 [Compound 1.21, 3-(6-benzylsulfanyl-3-pyridyl)-5-(trifluoromethyl)-1,2,4-oxadiazole]
[2]
  inhibition at 20 ppm: ≥ 80%
other
  melting point: 66 to 68 °C

## Cc1cc(-c2noc(C(F)(F)F)n2)ccc1SCc1ccccc1 [Compound 1.22, 3-(4-benzylsulfanyl-3-methyl-phenyl)-5-(trifluoromethyl)-1,2,4-oxadiazole]
other
  melting point: 66 to 72 °C

## Fc1cc(-c2noc(C(F)(F)F)n2)cc(F)c1CSc1ccccc1 [Compound 1.27, 3-[3,5-difluoro-4-(phenylsulfanylmethyl)phenyl]-5-(trifluoromethyl)-1,2,4-oxadiazole]
[2]
  inhibition at 20 ppm: ≥ 80%
other
  melting point: 50 to 55 °C

## [O-][S+](Cc1ccccc1)c1ccc(-c2noc(C(F)(F)F)n2)cc1 (stereo not drawn) [Compound 2.4, 3-(4-benzylsulfinylphenyl)-5-(trifluoromethyl)-1,2,4-oxadiazole]
[2]
  inhibition at 20 ppm: ≥ 80%
other
  melting point: 178 to 181 °C

## [O-][S+](c1ccc(-c2noc(C(F)(F)F)n2)cc1)c1ccccc1C(F)(F)F (stereo not drawn) [Compound 2.21, 5-(trifluoromethyl)-3-[4-[2-(trifluoromethyl)phenyl]sulfinylphenyl]-1,2,4-oxadiazole]
[1]
  pest or weed control at 200 ppm: ≥ 80%
other
  melting point: 80 to 86 °C

## [O-][S+](Cc1ccccc1)c1ccc(-c2noc(C(F)(F)F)n2)cn1 (stereo not drawn) [Compound 2.27, 3-(6-benzylsulfinyl-3-pyridyl)-5-(trifluoromethyl)-1,2,4-oxadiazole]
[2]
  inhibition at 20 ppm: ≥ 80%
other
  melting point: 122 to 125 °C

## [O-][S+](Cc1ccc(-c2noc(C(F)(F)F)n2)c(F)c1)c1ccccc1 (stereo not drawn) [Compound 2.30, 3-[4-(benzenesulfinylmethyl)-2-fluoro-phenyl]-5-(trifluoromethyl)-1,2,4-oxadiazole]
other
  melting point: 149 to 156 °C

## O=S(=O)(c1ccc(-c2noc(C(F)(F)F)n2)cc1)c1ccc(F)cc1F [Compound 3.4, 3-[4-(2,4-difluorophenyl)sulfonyl-phenyl]-5-(trifluoromethyl)-1,2,4-oxadiazole]
[1]
  pest or weed control at 200 ppm: ≥ 80%
[2]
  inhibition at 20 ppm: ≥ 80%

## O=S(=O)(CC(F)(F)F)c1ccc(-c2noc(C(F)(F)F)n2)cc1 [Compound 3.5, 3-[4-(2,2,2-trifluoroethylsulfonyl)phenyl]-5-(trifluoromethyl)-1,2,4-oxadiazole]
[2]
  inhibition at 20 ppm: ≥ 80%
other
  melting point: 117 to 122 °C

## Cc1ccc(C)c(S(=O)(=O)c2ccc(-c3noc(C(F)(F)F)n3)cc2)c1 [Compound 3.6, 3-[4-(2,5-dimethylphenyl)sulfonyl-phenyl]-5-(trifluoromethyl)-1,2,4-oxadiazole]
[2]
  inhibition at 20 ppm: ≥ 80%
other
  melting point: 118 to 125 °C

## Cc1cc(-c2noc(C(F)(F)F)n2)ccc1S(=O)(=O)c1ccccc1 [Compound 3.8, 3-[4-(benzenesulfonyl)-3-methyl-phenyl]-5-(trifluoromethyl)-1,2,4-oxadiazole]
[2]
  inhibition at 20 ppm: ≥ 80%
other
  melting point: 117 to 124 °C

## O=S(=O)(Cc1ccc(-c2noc(C(F)(F)F)n2)cc1)c1ccccc1F [Compound 3.11, 3-[4-[(2-fluorophenyl)sulfonylmethyl]phenyl]-5-(trifluoromethyl)-1,2,4-oxadiazole]
[1]
  pest or weed control at 200 ppm: ≥ 80%
other
  melting point: 150 to 154 °C

## CC(C)(C)S(=O)(=O)c1ccc(-c2noc(C(F)(F)F)n2)cc1 [Compound 3.13, 3-(4-tert-butylsulfonylphenyl)-5-(trifluoromethyl)-1,2,4-oxadiazole]
[2]
  inhibition at 20 ppm: ≥ 80%
other
  melting point: 133 to 136 °C

## CCC(C)CS(=O)(=O)c1ccc(-c2noc(C(F)(F)F)n2)cc1 (stereo not drawn) [Compound 3.15, 3-[4-(2-methylbutylsulfonyl)phenyl]-5-(trifluoromethyl)-1,2,4-oxadiazole]
[2]
  inhibition at 20 ppm: ≥ 80%
other
  melting point: 75 to 80 °C

## O=S(=O)(c1ccc(-c2noc(C(F)(F)F)n2)cc1)c1ccccc1Cl [Compound 3.20, 3-[4-(2-chlorophenyl)sulfonylphenyl]-5-(trifluoromethyl)-1,2,4-oxadiazole]
[1]
  pest or weed control at 200 ppm: ≥ 80%
[2]
  inhibition at 20 ppm: ≥ 80%

## O=S(=O)(Cc1ccc(-c2noc(C(F)(F)F)n2)c(F)c1)c1ccccc1 [Compound 3.22, 3-[4-(benzenesulfonylmethyl)-2-fluoro-phenyl]-5-(trifluoromethyl)-1,2,4-oxadiazole]
[1]
  pest or weed control at 200 ppm: ≥ 80%
other
  melting point: 172 to 178 °C

## O=S(=O)(Cc1ccc(-c2noc(C(F)(F)F)n2)c(F)c1F)c1ccccc1 [Compound 3.23, 3-[4-(benzenesulfonylmethyl)-2,3-difluoro-phenyl]-5-(trifluoromethyl)-1,2,4-oxadiazole]
[1]
  pest or weed control at 200 ppm: ≥ 80%
other
  melting point: 187 to 191 °C

## O=S(=O)(Cc1c(F)cc(-c2noc(C(F)(F)F)n2)cc1F)c1ccccc1 [Compound 3.24, 3-[4-(benzenesulfonylmethyl)-3,5-difluoro-phenyl]-5-(trifluoromethyl)-1,2,4-oxadiazole]
[1]
  pest or weed control at 200 ppm: ≥ 80%
other
  melting point: 135 to 140 °C
